In patent US20100022475A1, “NOVEL TRIAZOLOPYRIMIDINE DERIVATIVES” (priority 2004, published 2010):

Key:
Puccinia recondita = Puccinia recondita / wheat / preventive (brown rust); format: in vivo; details: 200 ppm, spray, wheat plants cv. Arina, assessed 11 days after inoculation
[1] = test system: Magnaporthe grisea (Pyricularia oryzae); format: in vivo; details: 200 ppm, spray, rice plants cv. Koshihikari, preventive, assessed 6 days after inoculation
[2] = test system: Pyrenophora teres (Helminthosporium teres); test: Pyrenophora teres (Helminthosporium teres) / barley / preventive (net blotch); format: in vivo; details: 200 ppm, spray, barley plants cv. Regina, assessed 4 days after inoculation
Botrytis cinerea = Botrytis cinerea / tomato / preventive; format: in vivo; details: 200 ppm, spray, tomato plants cv. Roter Gnom, assessed 3 days after inoculation
Alternaria solani = Alternaria solani / tomato / preventive; format: in vivo; details: 200 ppm, spray, tomato plants cv. Roter Gnom, assessed 4 days after inoculation
Septoria tritici = Septoria tritici / wheat / preventive (Septoria leaf spot); format: in vivo; details: 200 ppm, spray, wheat plants cv. Riband, assessed 16-18 days after inoculation

## C[Si]1(CNc2c(-c3c(F)cc(F)cc3F)c(Cl)nc3ncnn23)CCCC1 [I.d.081, [5-chloro-6-(2,4,6-trifluoro-phenyl)-[1,2,4]triazolo[1,5-a]pyrimidin-7-yl]-(1-methyl-silolan-1-ylmethyl)-amine]
Puccinia recondita
  inhibits fungal infestation: ≥ 80%
[1]
  inhibits fungal infestation: ≥ 80%
[2]
  inhibits fungal infestation: ≥ 80%
Botrytis cinerea
  inhibits fungal infestation: ≥ 80%
Alternaria solani
  inhibits fungal infestation: ≥ 80%
Septoria tritici
  inhibits fungal infestation: ≥ 80%
other
  melting point: 138 to 139 °C

## C[Si]1(CNc2c(-c3c(F)cc(F)cc3F)c(Cl)nc3ncnn23)CCCCC1 [I.o.081, [5-chloro-6-(2,4,6-trifluoro-phenyl)-[1,2,4]triazolo[1,5-a]pyrimidin-7-yl]-(1-methyl-silinan-1-ylmethyl)-amine]
other
  melting point: 150 to 152 °C
